Assay [1] relates to BRCA1 mRNA expression in MDA-MB-231 cells. The assay is described as follows: qRT-PCR assay: BRCA1 mRNA expression in MDA-MB-231. The assay is classed as cell-based, human. The following applies: Homo sapiens, MDA-MB-231, Inhibition of BRCA1 mRNA expression in MDA-MB-231 cells; median; read-out: RTqPCR-MDA-MB-231, IC50, BRCA1 (median). A digest of the protocol:
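GAPDH-normalised RT-qPCR measures the transcript after 24 h continuous compound treatment of cells seeded at 200,000/well one day earlier.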
(Real-time PCR tracks product formation cycle by cycle.)

The target in assay [2] is CDK12/CycK (Homo sapiens, UniProt Q9NYV4). Description: CDK12/CycK high ATP kinase assay (TR-FRET, 2 mM ATP). Format: biochemical. The conditions noted are these: 2 mM ATP (high ATP); median; read-out: CDK12/CyclinK, 2 mM ATP (high ATP), IC50-[mol/l] (median). A digest of the protocol: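 His-tagged human CDK12/CycK (~0.75 nM) pre-incubated 15 min with compound, then 60 min at 22 °C with 2 mM ATP and 1 µM biotinylated peptide (HEPES pH 7.5, 20 mM MgCl2). EDTA stop; phospho-Ser62 antibody/Eu anti-rabbit and streptavidin-XL665 TR-FRET, 665/620 nm ratio normalised to give IC50.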
CDK12/CycK, sequence (Q9NYV4 with tags, fused parts or gaps): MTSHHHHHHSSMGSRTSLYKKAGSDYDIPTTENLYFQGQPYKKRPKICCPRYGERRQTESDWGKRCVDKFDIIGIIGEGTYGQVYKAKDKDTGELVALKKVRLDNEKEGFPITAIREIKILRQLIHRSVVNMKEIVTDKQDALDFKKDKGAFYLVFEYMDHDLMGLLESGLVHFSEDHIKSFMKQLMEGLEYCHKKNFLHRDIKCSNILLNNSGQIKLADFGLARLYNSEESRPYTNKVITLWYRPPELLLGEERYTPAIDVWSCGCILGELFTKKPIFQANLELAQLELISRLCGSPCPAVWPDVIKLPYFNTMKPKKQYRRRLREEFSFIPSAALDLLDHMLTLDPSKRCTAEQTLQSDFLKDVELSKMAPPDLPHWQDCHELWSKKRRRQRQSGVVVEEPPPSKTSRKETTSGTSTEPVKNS
CDK12/CycK, sequence (O75909 1-300 partner limits assumed): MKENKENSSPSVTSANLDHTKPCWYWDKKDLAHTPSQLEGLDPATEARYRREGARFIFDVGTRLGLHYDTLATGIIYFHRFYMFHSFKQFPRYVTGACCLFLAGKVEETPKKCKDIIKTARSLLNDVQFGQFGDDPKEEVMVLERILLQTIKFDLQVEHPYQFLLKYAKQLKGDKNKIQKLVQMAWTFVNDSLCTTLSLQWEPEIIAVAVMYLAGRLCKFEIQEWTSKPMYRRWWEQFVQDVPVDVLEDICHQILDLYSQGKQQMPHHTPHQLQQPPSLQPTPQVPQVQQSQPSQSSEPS

For assay [3], the system named is CAL-120, human breast adenocarcinoma cells. The assay is described as follows: Proliferation assay CAL-120 (crystal violet, 4 days). The conditions noted are these: CAL-120 cells, median, read-out: Prolif-CAL-120, IC50-[mol/l] (median). Format: cell-based. A digest of the protocol: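 Following a 24 h attachment in 10% fetal calf serum medium, cells receive test substance over 0.01-10 µmol/L for 4 days. Dye retained by fixed cells is eluted and read at 595 nm; cell number change is referenced to day-0 and untreated wells.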

For 22 compounds, IC50 results are on record in patent publication US20230117034A1, “PYRAZOLOTRIAZINES” (Bayer Aktiengesellschaft, priority 2019, published 2023).

pIC50: −log10 of the molar value. Read-outs that look alike come from different tables or passages of the source.

Consider `Fc1cc2nc(CNc3nc(N4CCOCC4)nc4c(C5CC5)cnn34)[nH]c2cc1Cl` [Example 307, N-[(6-chloro-5-fluoro-1H-benzimidazol-2-yl)methyl]-8-cyclopropyl-2-(morpholin-4-yl)pyrazolo[1,5-a][1,3,5]triazin-4-amine], for which the pIC50 in assay [1] was 8.09; in assay [2] it was 5.80; in assay [3] (Homo sapiens, CAL-120, 96 h), 8.34.

Take `CN[C@H]1CCN(c2nc(NCc3nc4ccccc4[nH]3)n3ncc(Br)c3n2)C1` [Example 252, N-[(1H-benzimidazol-2-yl)methyl]-8-bromo-2-[(3S)-3-(methylamino)pyrrolidin-1-yl]pyrazolo[1,5-a][1,3,5]triazin-4-amine]: the pIC50 was 7.99 in assay [1]; < 4.70 in assay [2]; 7.41 in assay [3] (Homo sapiens, CAL-120, 96 h).

Consider `CC1CN(C)CCN1c1nc(NCc2nc3ccccc3[nH]2)n2ncc(Br)c2n1` (single isomer, unassigned; enantiomer 1) [Example 260, N-(1H-benzimidazol-2-ylmethyl)-8-bromo-2-[(2R or S)-2,4-dimethylpiperazin-1-yl]pyrazolo[1,5-a][1,3,5]triazin-4-amine (Enantiomer 1)], for which the pIC50 is 8.47 in assay [1], 4.91 in assay [2] and 8.22 in assay [3].

`Brc1cnn2c(NCc3nc4ccccc4[nH]3)nc(N3C[C@H]4C[C@@H]3CN4)nc12` [Example 269, N-[(1H-benzimidazol-2-yl)methyl]-8-bromo-2-[(1R,4R)-2,5-diazabicyclo[2.2.1]heptan-2-yl]pyrazolo[1,5-a][1,3,5]triazin-4-amine]: the pIC50 was 8.08 in assay [1]; 5.06 in assay [2]; 8.14 in assay [3] (Homo sapiens, CAL-120, 96 h).

For `N[C@@H]1CN(c2nc(NCc3nc4ccccc4[nH]3)n3ncc(Br)c3n2)CC12CC2` [Example 251, 2-[(7S)-7-amino-5-azaspiro[2.4]heptan-5-yl]-N-[(1H-benzimidazol-2-yl)methyl]-8-bromopyrazolo[1,5-a][1,3,5]triazin-4-amine], the pIC50 is 8.83 in assay [1]; 6.01 in assay [2]; 8.18 in assay [3] (Homo sapiens, CAL-120, 96 h).

Regarding `c1ccc2[nH]c(CNc3nc(N4CCNCC4)nc4c(C5CC5)cnn34)nc2c1` [Example 247, N-[(1H-benzimidazol-2-yl)methyl]-8-cyclopropyl-2-(piperazin-1-yl)pyrazolo[1,5-a][1,3,5]triazin-4-amine], the pIC50 in assay [1] is 8.26; in assay [2], 4.83; in assay [3] (Homo sapiens, CAL-120, 96 h), 8.01.

Turning to `N[C@H]1CCN(c2nc(NCc3nc4ccccc4[nH]3)n3ncc(Br)c3n2)C1` [Example 245, 2-[(3S)-3-aminopyrrolidin-1-yl]-N-[(1H-benzimidazol-2-yl)methyl]-8-bromopyrazolo[1,5-a][1,3,5]triazin-4-amine], the pIC50 was 8.13 in assay [1]; < 4.80 in assay [2]; 8.51 in assay [3] (Homo sapiens, CAL-120, 96 h).

`FC(F)(F)c1cnn2c(NCc3nc4cc(Cl)ccc4[nH]3)nc(N3CCOCC3)nc12` [Example 275, N-[(5-chloro-1H-benzimidazol-2-yl)methyl]-2-(morpholin-4-yl)-8-(trifluoromethyl)pyrazolo[1,5-a][1,3,5]triazin-4-amine]: the pIC50 was 8.70 in assay [1]; 7.01 in assay [2]; 8.41 in assay [3] (Homo sapiens, CAL-120, 96 h).

`FC1(F)CC1c1cnn2c(NCc3nc4ccccc4[nH]3)nc(N3CCOCC3)nc12` (stereo not drawn) [Example 279, N-[(1H-benzimidazol-2-yl)methyl]-8-(2,2-difluorocyclopropyl)-2-(morpholin-4-yl)pyrazolo[1,5-a][1,3,5]triazin-4-amine]: the pIC50 in assay [1] was 7.92; in assay [2], 4.85; in assay [3] (Homo sapiens, CAL-120, 96 h), 7.76.

For the compound `Fc1ccc2[nH]c(CNc3nc(N4CCOCC4)nc4c(C5CCC5)cnn34)nc2c1F` [Example 264, 8-cyclobutyl-N-[(4,5-difluoro-1H-benzimidazol-2-yl)methyl]-2-(morpholin-4-yl)pyrazolo[1,5-a][1,3,5]triazin-4-amine], the pIC50 in assay [1] is 8.20; in assay [2] it was 5.65; in assay [3] (Homo sapiens, CAL-120, 96 h) it was 8.06.

With `c1ccc2[nH]c(CNc3nc(N4CCOCC4)nc4c(C5CCC5)cnn34)nc2c1` [Example 263, N-[(1H-benzimidazol-2-yl)methyl]-8-cyclobutyl-2-(morpholin-4-yl)pyrazolo[1,5-a][1,3,5]triazin-4-amine], the pIC50 is 7.54 in assay [1]; 5.16 in assay [2]; 7.54 in assay [3] (Homo sapiens, CAL-120, 96 h).

On to `CN(CC(C)(C)O)c1nc(NCc2nc3cc(Cl)c(Cl)cc3[nH]2)n2ncc(C3CC3)c2n1` [Example 306, 1-[(8-cyclopropyl-4-{[(5,6-dichloro-1H-benzimidazol-2-yl)methyl]amino}pyrazolo[1,5-a][1,3,5]triazin-2-yl)(methyl)amino]-2-methylpropan-2-ol], for which the pIC50 is 8.16 in assay [1]; 5.73 in assay [2]; 8.14 in assay [3] (Homo sapiens, CAL-120, 96 h).

As for `Brc1cnn2c(NCc3nc4ccccc4[nH]3)nc(N3C[C@H]4CNC[C@H]4C3)nc12` [Example 283, N-[(1H-benzimidazol-2-yl)methyl]-8-bromo-2-[(3aR,6aS)-hexahydropyrrolo[3,4-c]pyrrol-2(1H)-yl]pyrazolo[1,5-a][1,3,5]triazin-4-amine], the pIC50 was 8.04 in assay [1]; 4.74 in assay [2]; 7.58 in assay [3] (Homo sapiens, CAL-120, 96 h).

Consider `c1ccc2[nH]c(CNc3nc(N4C[C@@H]5CCCN[C@@H]5C4)nc4c(C5CC5)cnn34)nc2c1` [Example 249, N-[(1H-benzimidazol-2-yl)methyl]-8-cyclopropyl-2-[(4aS,7aS)-octahydro-6H-pyrrolo[3,4-b]pyridin-6-yl]pyrazolo[1,5-a][1,3,5]triazin-4-amine], for which the pIC50 was 8.24 in assay [1]; < 4.77 in assay [2]; 8.37 in assay [3] (Homo sapiens, CAL-120, 96 h).

`CNC1CCN(c2nc(NCc3nc4ccccc4[nH]3)n3ncc(Br)c3n2)CC1` [Example 272, N-[(1H-benzimidazol-2-yl)methyl]-8-bromo-2-[4-(methylamino)piperidin-1-yl]pyrazolo[1,5-a][1,3,5]triazin-4-amine]: the pIC50 in assay [1] is 8.10; in assay [2] it was < 4.70; in assay [3] (Homo sapiens, CAL-120, 96 h), 7.65.

On to `COc1ccc2[nH]c(CNc3nc(N4CCOCC4)nc4c(C(F)(F)F)cnn34)nc2c1` [Example 257, N-[(5-methoxy-1H-benzimidazol-2-yl)methyl]-2-(morpholin-4-yl)-8-(trifluoromethyl)pyrazolo[1,5-a][1,3,5]triazin-4-amine], for which the pIC50 in assay [1] was 8.16; in assay [2], 6.93; in assay [3] (Homo sapiens, CAL-120, 96 h) it was 7.97.

Turning to `CN(CC(C)(C)O)c1nc(NCc2nc3c(F)c(F)ccc3[nH]2)n2ncc(C3CC3)c2n1` [Example 292, 1-[(8-cyclopropyl-4-{[(4,5-difluoro-1H-benzimidazol-2-yl)methyl]amino}pyrazolo[1,5-a][1,3,5]triazin-2-yl)(methyl)amino]-2-methylpropan-2-ol], the pIC50 in assay [1] was 8.55; in assay [2], 6.18; in assay [3] (Homo sapiens, CAL-120, 96 h), 8.52.

With `CN1CCN(c2nc(NCc3nc4ccccc4[nH]3)n3ncc(C4CC4)c3n2)CC1` [Example 246, N-[(1H-benzimidazol-2-yl)methyl]-8-cyclopropyl-2-(4-methylpiperazin-1-yl)pyrazolo[1,5-a][1,3,5]triazin-4-amine], the pIC50 in assay [1] is 7.99; in assay [2], < 4.89; in assay [3] (Homo sapiens, CAL-120, 96 h) it was 7.92.

For the compound `CN[C@@H]1CCN(c2nc(NCc3nc4ccccc4[nH]3)n3ncc(Br)c3n2)C1` [Example 253, N-[(1H-benzimidazol-2-yl)methyl]-8-bromo-2-[(3R)-3-(methylamino)pyrrolidin-1-yl]pyrazolo[1,5-a][1,3,5]triazin-4-amine], the pIC50 in assay [1] is 7.68; in assay [2], < 4.70; in assay [3] (Homo sapiens, CAL-120, 96 h) it was 8.16.

`Brc1cnn2c(NCc3nc4ccccc4[nH]3)nc(N3CC4CCNC4C3)nc12` (stereo not drawn) [Example 271, 2-(2,3,3a,4,6,6a-hexahydro-1H-pyrrolo[2,3-c]pyrrol-5-yl)-N-(1H-benzimidazol-2-ylmethyl)-8-bromo-pyrazolo[1,5-a][1,3,5]triazin-4-amine]: the pIC50 in assay [1] is 7.86; in assay [2], < 4.70; in assay [3] (Homo sapiens, CAL-120, 96 h), 7.63.

Consider `Brc1cnn2c(NCc3nc4ccccc4[nH]3)nc(NCC3CC3)nc12` [Example 284, N^4-[(1H-benzimidazol-2-yl)methyl]-8-bromo-N^2-(cyclopropylmethyl)pyrazolo[1,5-a][1,3,5]triazine-2,4-diamine], for which the pIC50 in assay [1] was 7.62; in assay [2], 5.26; in assay [3] (Homo sapiens, CAL-120, 96 h), 7.13.

`Cc1ccnc2[nH]c(CNc3nc(N4CCOCC4)nc4c(Br)cnn34)nc12` [Example 20, 8-bromo-N-[(7-methyl-3H-imidazo[4,5-b]pyridin-2-yl)methyl]-2-(morpholin-4-yl)pyrazolo[1,5-a][1,3,5]triazin-4-amine]: the pIC50 in assay [1] is 8.17; in assay [2] it was 5.76; in assay [3] (Homo sapiens, CAL-120, 96 h), 7.85.
